Results from US4175081A, “5-Substituted thiadiazole ureas” (priority 1977, dated 1979).

How the values were obtained:
Bean (BN) [1] = test: Post-emergence herbicide test; assay type: in vivo, Phaseolus vulgaris var. Black Valentine; settings: Phaseolus vulgaris, post-emergence, 336 h, two weeks after treatment
Procedure, shortened: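 Bean seedlings (Phaseolus vulgaris var. Black Valentine) were grown in potting soil in 3' pots until the primary leaves expanded. They were then sprayed under a hood with a removable belt and fixed nozzle, using 50 ml formulations. Afterward they were returned to the greenhouse and watered only by sub-irrigation. Percent control was judged visually two weeks after treatment.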

Cotton (CT) [2] = test: Pre-emergence herbicide test; assay type: in vivo, Gossypium hirsutum var. DPL smooth leaf; settings: Gossypium hirsutum, 336 h, two weeks after treatment
Procedure, shortened: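 Visual injury/control ratings were taken at two weeks post-spray. Pots seeded a day earlier received compound pre-emergence at 8 lbs/acre, or 4 lbs/acre, in a 38 gallon/acre spray volume, and were then held in the greenhouse, watered only from below.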

Johnson grass (JG) [3] = test: Pre-emergence herbicide test; assay type: in vivo, Sorgum helepense; settings: Sorghum halepense, 336 h, two weeks after treatment
Procedure, shortened: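 Visual injury or control rating two weeks post-treatment, after pre-emergence spray of 8 or 4 lbs active per acre (38 gal/acre) onto pots sown the previous day. Greenhouse watering by sub-irrigation only.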

Turnip (TP) [4] = test: Post-emergence herbicide test; assay type: in vivo, Brassica sp.; settings: Brassica rapa, post-emergence, 336 h, two weeks after treatment
Procedure, shortened: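 A greenhouse post-emergence herbicide test on turnip. Seeds were sown on the surface of potting soil in 3' plastic pots, lightly covered with screened soil and watered from below. Planting was timed so seedlings had 1 or 2 true leaves above the cotyledons at spraying, done in a hood with a fixed nozzle. Control or injury was scored by eye after two weeks.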

[5] = system: variety of crops and weed species; test: Pre- and post-emergence herbicide tests, overall assessment of Tables III-VI; assay type: in vivo; settings: data of Tables III-VI
Procedure, shortened: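 Crops and weeds grown in potting soil were sprayed at 8 lbs. compound per acre in 38 gallons per acre, pre-emergence pots seeded one day before treatment. Injury or control was visually rated two weeks after treatment.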

Cotton (CT) [6] = test: Post-emergence herbicide test; assay type: in vivo, Gossypium hirsutum var. DPL smooth leaf; settings: Gossypium hirsutum, post-emergence, 336 h, two weeks after treatment
Procedure, shortened: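 This greenhouse post-emergence test measured how well spray treatments controlled cotton. Seedlings of Gossypium hirsutum var. DPL smooth leaf, with expanded cotyledons and a first true leaf 1' in length, were sprayed with 50 ml formulations in a belt-fed spray hood. They were then returned to the greenhouse and watered only by sub-irrigation. Injury was scored visually as % control after two weeks.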

Johnson grass (JG) [7] = test: Post-emergence herbicide test; assay type: in vivo, Sorgum helepense; settings: Sorghum halepense, 336 h, two weeks after treatment
Procedure, shortened: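 Visual injury or control scores taken 2 weeks after a post-emergence spray of pot-grown plants. Application was 8 lbs/acre (or 4 lbs/acre) in 38 gal/acre. Plants were held in the greenhouse with sub-irrigation only.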

[8] = system: Yellow foxtail grass (YF); test: Pre-emergence herbicide test; assay type: in vivo, Setaria glauca; settings: Setaria, 336 h, two weeks after treatment
Procedure, shortened: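 Visual rating of injury/control made two weeks after a pre-emergence spray of 8 or 4 lbs active per acre (38 gal/acre) onto pots seeded the previous day. Greenhouse watering by sub-irrigation only.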

Barnyard grass (BG) [9] = test: Pre-emergence herbicide test; assay type: in vivo; settings: Echinochloa crus-galli, 336 h, two weeks after treatment
Procedure, shortened: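 Greenhouse pre-emergence spray test: pots seeded one day before treatment received compound at rates of 8 or 4 lb/acre (38 gal/acre). Visual injury/control scores for Echinochloa crus-galli taken at two weeks, with watering by sub-irrigation only.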

[10] = system: Yellow foxtail grass (YF); test: Post-emergence herbicide test; assay type: in vivo, Setaria glauca; settings: Setaria, 336 h, two weeks after treatment
Procedure, shortened: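 Visual rating of injury/control made 2 weeks post-spray. Seedlings at a uniform growth stage in soil-filled pots received a hood spray of 8 lbs/acre active compound, 38 gallons/acre volume, with a 4 lbs/acre rate also formulated. Watering was by sub-irrigation only.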

Corn (CN) [11] = test: Pre-emergence herbicide test; assay type: in vivo; settings: Zea mays, 336 h, two weeks after treatment
Procedure, shortened: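 Visual injury/control ratings were made 2 weeks post-spray on corn pots seeded (4 seeds, seed-diameter depth) the day before treatment. Application was a belt-hood spray of 38 gal/acre delivering 8 lbs active per acre, with a 4 lbs/acre rate also formulated. Watering was by sub-irrigation throughout.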

Crabgrass (CG) [12] = test: Post-emergence herbicide test; assay type: in vivo, Digitaria sanquinalis; settings: Digitaria sanguinalis, post-emergence, 336 h, two weeks after treatment
Procedure, shortened: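 Crabgrass (Digitaria sanquinalis) was surface seeded individually in 3' plastic pots of potting soil, covered with screened soil, and watered by sub-irrigation in greenhouse trays. Planting was staggered so seedlings reached the target stage together. Post-emergence sprays were applied in a hood with a removable belt and fixed nozzle, and control was visually rated two weeks after treatment.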

Turnip (TP) [13] = test: Pre-emergence herbicide test; assay type: in vivo, Brassica sp.; settings: Brassica rapa, pre-emergence, 336 h, two weeks after treatment
Procedure, shortened: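 In this pre-emergence greenhouse test, turnip was seeded on the surface of potting soil in 3' plastic pots, lightly covered with screened soil, and watered from below. One day later the pots were sprayed in a belt-fed spray hood. Watering continued only by sub-irrigation, and percent control was visually scored two weeks after treatment.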

Barnyard grass (BG) [14] = test: Post-emergence herbicide test; assay type: in vivo; settings: Echinochloa crus-galli, 336 h, two weeks after treatment
Procedure, shortened: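 Greenhouse pot-grown barnyard grass seedlings sprayed post-emergence at 8 lbs active compound per acre (some at 4 lbs/acre) in 38 gallons per acre, then sub-irrigated. Injury or control rated visually two weeks after treatment.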

Amaranth pigweed (PW) [15] = test: Pre-emergence herbicide test; assay type: in vivo, Amaranthus retroflexus; settings: 336 h, two weeks after treatment
Procedure, shortened: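 Visual injury or control ratings were made at two weeks on pre-emergence pots, sub-irrigated in the greenhouse. Seeds were sown a day before a hood spray delivering 8 lbs/acre (or 4 lbs/acre) of compound in 38 gallons per acre.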

Amaranth pigweed (PW) [16] = test: Post-emergence herbicide test; assay type: in vivo, Amaranthus retroflexus; settings: 336 h, two weeks after treatment
Procedure, shortened: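 Visual injury or control ratings were made two weeks after spraying, with greenhouse watering by sub-irrigation only. Treatment was post-emergence, when pigweed seedlings had 1 or 2 true leaves, at 8 lbs active compound per acre (4 lbs/acre formulations also made) in a 38 gallons-per-acre spray volume.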

Crabgrass (CG) [17] = test: Pre-emergence herbicide test; assay type: in vivo, Digitaria sanquinalis; settings: Digitaria sanguinalis, pre-emergence, 336 h, two weeks after treatment
Procedure, shortened: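 Crabgrass (Digitaria sanquinalis) was surface seeded in 3' plastic pots of potting soil, covered with screened soil, and watered by sub-irrigation in greenhouse trays. Pots were seeded one day before spraying in a hood with a moving belt and fixed nozzle. Plants stayed in the greenhouse on sub-irrigation, and pre-emergence control was rated visually two weeks after treatment.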

Corn (CN) [18] = test: Post-emergence herbicide test; assay type: in vivo; settings: Zea mays, 336 h, two weeks after treatment
Procedure, shortened: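 Greenhouse seedlings grown in potting soil and sprayed post-emergence at 8 lbs compound/acre (formulations also made for 4 lbs/acre) in 38 gallons/acre spray volume. Watering by sub-irrigation only. Injury or control rated visually two weeks after treatment.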

Bean (BN) [19] = test: Pre-emergence herbicide test; assay type: in vivo, Phaseolus vulgaris var. Black Valentine; settings: Phaseolus vulgaris, 336 h, two weeks after treatment
Procedure, shortened: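 Visual injury/control ratings were taken two weeks post-spray on sub-irrigated Phaseolus vulgaris var. Black Valentine. Pots were sown a day before treatment. Pre-emergence spray delivered 8 lbs actual compound per acre (or 4 lbs/acre) at 38 gallons per acre.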

## CNC(=O)N(C)c1nnc(C(F)(F)F)s1 [Example 36]
Bean (BN) [1]; 2 lb/acre
  pest or weed control at 2241.7 g/ha: 100%
Bean (BN) [1]; 4 lb/acre
  pest or weed control at 4483.4 g/ha: 100%
Bean (BN) [1]; 8 lb/acre
  pest or weed control at 8966.8 g/ha: 100%
Cotton (CT) [2]; 2 lb/acre
  pest or weed control at 2241.7 g/ha: 80%
Cotton (CT) [2]; 4 lb/acre
  pest or weed control at 4483.4 g/ha: 90%
Cotton (CT) [2]; 8 lb/acre
  pest or weed control at 8966.8 g/ha: 90%
Johnson grass (JG) [3]; 2 lb/acre
  pest or weed control at 2241.7 g/ha: 70%
Johnson grass (JG) [3]; 4 lb/acre
  pest or weed control at 4483.4 g/ha: 40%
Johnson grass (JG) [3]; 8 lb/acre
  pest or weed control at 8966.8 g/ha: 90%
Turnip (TP) [4]; 2 lb/acre
  pest or weed control at 2241.7 g/ha: 100%
Turnip (TP) [4]; 4 lb/acre
  pest or weed control at 4483.4 g/ha: 100%
Turnip (TP) [4]; 8 lb/acre
  pest or weed control at 8966.8 g/ha: 100%
[5]
  herbicidal effectiveness / selectivity, in words: extremely effective when applied to a variety of crops and weed species
Cotton (CT) [6]; 2 lb/acre
  pest or weed control at 2241.7 g/ha: 100%
Cotton (CT) [6]; 4 lb/acre
  pest or weed control at 4483.4 g/ha: 100%
Cotton (CT) [6]; 8 lb/acre
  pest or weed control at 8966.8 g/ha: 100%
Johnson grass (JG) [7]; 2 lb/acre
  pest or weed control: 80%
Johnson grass (JG) [7]; 4 lb/acre
  pest or weed control at 4483.4 g/ha: 80%
Johnson grass (JG) [7]; 8 lb/acre
  pest or weed control at 8966.8 g/ha: 100%
[8]; 2 lb/acre
  pest or weed control at 2241.7 g/ha: 100%
[8]; 4 lb/acre
  pest or weed control at 4483.4 g/ha: 90%
[8]; 8 lb/acre
  pest or weed control at 8966.8 g/ha: 90%
Barnyard grass (BG) [9]; 2 lb/acre
  pest or weed control at 2241.7 g/ha: 80%
Barnyard grass (BG) [9]; 4 lb/acre
  pest or weed control at 4483.4 g/ha: 100%
Barnyard grass (BG) [9]; 8 lb/acre
  pest or weed control at 8966.8 g/ha: 90%
[10]; 2 lb/acre
  pest or weed control: 100%
[10]; 4 lb/acre
  pest or weed control at 4483.4 g/ha: 100%
[10]; 8 lb/acre
  pest or weed control at 8966.8 g/ha: 100%
Corn (CN) [11]; 2 lb/acre
  pest or weed control at 2241.7 g/ha: 30%
Corn (CN) [11]; 4 lb/acre
  pest or weed control at 4483.4 g/ha: 40%
Corn (CN) [11]; 8 lb/acre
  pest or weed control at 8966.8 g/ha: 30%
Crabgrass (CG) [12]; 2 lb/acre
  pest or weed control: 70%
Crabgrass (CG) [12]; 4 lb/acre
  pest or weed control at 4483.4 g/ha: 90%
Crabgrass (CG) [12]; 8 lb/acre
  pest or weed control at 8966.8 g/ha: 100%
Turnip (TP) [13]; 2 lb/acre
  pest or weed control at 2241.7 g/ha: 100%
Turnip (TP) [13]; 4 lb/acre
  pest or weed control at 4483.4 g/ha: 100%
Turnip (TP) [13]; 8 lb/acre
  pest or weed control at 8966.8 g/ha: 100%
Barnyard grass (BG) [14]; 2 lb/acre
  pest or weed control at 2241.7 g/ha: 100%
Barnyard grass (BG) [14]; 4 lb/acre
  pest or weed control at 4483.4 g/ha: 100%
Barnyard grass (BG) [14]; 8 lb/acre
  pest or weed control at 8966.8 g/ha: 100%
Amaranth pigweed (PW) [15]; 2 lb/acre
  pest or weed control at 2241.7 g/ha: 90%
Amaranth pigweed (PW) [15]; 4 lb/acre
  pest or weed control at 4483.4 g/ha: 100%
Amaranth pigweed (PW) [15]; 8 lb/acre
  pest or weed control at 8966.8 g/ha: 90%
Amaranth pigweed (PW) [16]; 2 lb/acre
  pest or weed control at 2241.7 g/ha: 100%
Amaranth pigweed (PW) [16]; 4 lb/acre
  pest or weed control at 4483.4 g/ha: 100%
Amaranth pigweed (PW) [16]; 8 lb/acre
  pest or weed control at 8966.8 g/ha: 100%
Crabgrass (CG) [17]; 2 lb/acre
  pest or weed control: 100%
Crabgrass (CG) [17]; 4 lb/acre
  pest or weed control at 4483.4 g/ha: 90%
Crabgrass (CG) [17]; 8 lb/acre
  pest or weed control at 8966.8 g/ha: 90%
Corn (CN) [18]; 2 lb/acre
  pest or weed control: 70%
Corn (CN) [18]; 4 lb/acre
  pest or weed control at 4483.4 g/ha: 100%
Corn (CN) [18]; 8 lb/acre
  pest or weed control at 8966.8 g/ha: 100%
Bean (BN) [19]; 2 lb/acre
  pest or weed control at 2241.7 g/ha: 90%
Bean (BN) [19]; 4 lb/acre
  pest or weed control at 4483.4 g/ha: 80%
Bean (BN) [19]; 8 lb/acre
  pest or weed control at 8966.8 g/ha: 100%
